± gives the standard deviation of the averaged measurements.
Assays:
Test in all cases: level (log10 ratio to DMSO vehicle control); higher = higher biomarker level / cell amount than vehicle control
[1] = compound: C=CC(=O)OCC(F)(F)C(F)(F)C(F)(F)COC(=O)C=C [1H,1H,5H,5H-Perfluoro-1,5-pentanediol diacrylate]; conditions: 6700 nM; in DMSO
Protocol: (§1)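 BioMAP Diversity Plus panel of 12 human primary cell co-culture systems (3C, 4H, LPS, SAg, BT, BF4T, BE3C, CASM3C, HDF3CGF, KF3CT, MyoF, Mphg). Compounds were added 1 h before stimulation and left for 24 h (MyoF 48 h; BT 72 h for soluble read-outs or 6 d for IgG). Biomarkers were read by ELISA, cytotoxicity by SRB, PBMC viability and proliferation by Alamar Blue. Each well value was divided by the mean of 8 DMSO control wells on the same plate and log10 transformed; duplicate blinded samples were tested at 4 concentrations.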

[2] = compound: O=C(O)C=CC(F)(C(F)(F)F)C(F)(F)F [3-(Perfluoroisopropyl)-2-propenoic acid]; conditions: in DMSO
Protocol: as §1

[3] = compound: O=C(O)C(F)(F)C(F)(F)C(F)(F)C(F)(F)C(F)(F)C(F)(F)C(F)(F)C(F)(F)C(F)(F)C(F)F [11-H-Perfluoroundecanoic acid]; conditions: in DMSO
Protocol: as §1

[4] = compound: O=S(=O)(Cl)C(F)(F)C(F)(F)C(F)(F)C(F)(F)C(F)(F)C(F)(F)C(F)(F)C(F)(F)F [Perfluoro-1-octanesulfonyl chloride]; conditions: in DMSO
Protocol: as §1

[5] = compound: FC(F)(F)C(F)(F)C(F)(F)CI [Heptafluorobutyl iodide]; conditions: in DMSO
Protocol: as §1

[6] = compound: NC(=O)C(F)(F)C(F)(F)C(F)(F)C(F)F; conditions: in DMSO
Protocol: as §1

[7] = compound: COC(=O)C(F)(F)C(F)(F)OC(F)(C(F)(F)F)C(F)(F)OC(F)=C(F)F [Methyl perfluoro(3-(1-ethenyloxypropan-2-yloxy)propanoate)]; conditions: in DMSO
Protocol: as §1

[8] = compound: O=S(=O)(O)C(F)(F)C(F)(F)C(F)(F)C(F)(F)C(F)(F)C(F)(F)C(F)(F)C(F)(F)C(F)(F)C(F)(F)F [Sodium perfluorodecanesulfonate]; conditions: in DMSO
Protocol: as §1

[9] = compound: FC(F)(F)C(F)(F)C(F)(F)C(F)(F)C(F)(F)C(F)(F)C(F)(F)I [1-Iodopentadecafluoroheptane]; conditions: in DMSO
Protocol: as §1

[10] = compound: C=C(C)C(=O)OCCC(F)(F)C(F)(F)C(F)(F)C(F)(F)C(F)(F)C(F)(F)F [6:2 Fluorotelomer methacrylate]; conditions: in DMSO
Protocol: as §1

[11] = compound: NS(=O)(=O)C(F)(F)C(F)(F)C(F)(F)C(F)(F)C(F)(F)C(F)(F)F [Perfluorohexanesulfonamide]; conditions: in DMSO
Protocol: as §1

[12] = compound: O=S(=O)(O)CCC(F)(F)C(F)(F)C(F)(F)C(F)(F)C(F)(F)C(F)(F)F [6:2 Fluorotelomer sulfonic acid]; conditions: in DMSO
Protocol: as §1

[13] = compound: FC(F)(F)C(F)(F)CNCC(F)(F)C(F)(F)F [Bis(1H,1H-perfluoropropyl)amine]; conditions: in DMSO
Protocol: as §1

[14] = compound: O=S(=O)(F)C(F)(F)C(F)(F)C(F)(F)C(F)(F)C(F)(F)C(F)(F)C(F)(F)C(F)(F)F [Perfluorooctanesulfonyl fluoride]; conditions: in DMSO
Protocol: as §1

[15] = compound: OCC(F)(F)C(F)(F)C(F)(F)CO [Hexafluoroamylene glycol]; conditions: in DMSO
Protocol: as §1

[16] = compound: NC(=O)C(F)(F)C(F)(F)C(F)(F)C(F)(F)C(N)=O [Octafluoroadipamide]; conditions: in DMSO
Protocol: as §1

[17] = compound: FC(F)(F)C(F)(F)C(F)(F)C(F)(F)C(F)(F)C(F)(F)CC1CO1 [3-(Perfluorohexyl)-1,2-epoxypropane]; conditions: in DMSO
Protocol: as §1

[18] = compound: NC(=O)C(F)(F)C(F)(F)C(F)(F)C(F)(F)F [Nonafluoropentanamide]; conditions: in DMSO
Protocol: as §1

[19] = compound: FC(F)(F)C(F)(F)C(F)(F)CC1CO1 [1H,1H-Heptafluorobutyl epoxide]; conditions: in DMSO
Protocol: as §1

## CASM3C:Proliferation
[1]
  level (log10): -0.289 ± 0.086
[2]; 6700 nM
  level (log10): 0.0035 ± 0.019
[2]; 20000 nM
  level (log10): -0.009 ± 0.0085
[2]; 60000 nM
  level (log10): 0.009 ± 0.059
[3]; 6700 nM
  level (log10): -0.0495 ± 0.015
[3]; 20000 nM
  level (log10): 0.0005 ± 0.043
[4]; 6700 nM
  level (log10): -0.011 ± 0.078
[4]; 20000 nM
  level (log10): 0.007 ± 0.031
[4]; 60000 nM
  level (log10): -0.009 ± 0.011
[5]; 6700 nM
  level (log10): -0.008 ± 0.0085
[5]; 20000 nM
  level (log10): 0.0235 ± 0.018
[5]; 60000 nM
  level (log10): 0.008 ± 0.024
[6]; 6700 nM
  level (log10): 0.002 ± 0.071
[6]; 20000 nM
  level (log10): -0.0145 ± 0.023
[6]; 60000 nM
  level (log10): 0.014 ± 0.025
[7]; 6700 nM
  level (log10): -0.012 ± 0.065
[7]; 20000 nM
  level (log10): 0.036 ± 0.05
[8]; 1500 nM
  level (log10): 0.017 ± 0.0057
[8]; 4400 nM
  level (log10): 0.0585 ± 0.061
[8]; 13000 nM
  level (log10): -0.006 ± 0.059
[8]; 40000 nM
  level (log10): 0.0275 ± 0.03
[9]; 6700 nM
  level (log10): -0.003 ± 0.027
[9]; 20000 nM
  level (log10): -0.045 ± 0.0042
[10]; 6700 nM
  level (log10): -0.0395 ± 0.046
[10]; 20000 nM
  level (log10): -0.042 ± 0.031
[10]; 60000 nM
  level (log10): 0.0115 ± 0.0092
[11]; 6700 nM
  level (log10): 0.0015 ± 0.013
[11]; 20000 nM
  level (log10): 0.0285 ± 0.03
[11]; 60000 nM
  level (log10): 0.0255 ± 0.018
[12]; 6700 nM
  level (log10): -0.0095 ± 0.029
[12]; 20000 nM
  level (log10): 0.024 ± 0.033
[12]; 60000 nM
  level (log10): 0.026 ± 0.018
[13]; 6700 nM
  level (log10): -0.115 ± 0.024
[13]; 20000 nM
  level (log10): 0.0135 ± 0.037
[13]; 60000 nM
  level (log10): -0.0005 ± 0.076
[14]; 6700 nM
  level (log10): -0.0125 ± 0.044
[14]; 20000 nM
  level (log10): -0.0265 ± 0.032
[14]; 60000 nM
  level (log10): 0.0095 ± 0.0064
[15]; 6700 nM
  level (log10): -0.0005 ± 0.0021
[15]; 20000 nM
  level (log10): -0.0235 ± 0.0092
[15]; 60000 nM
  level (log10): 0.007 ± 0.0014
[16]; 6700 nM
  level (log10): -0.029 ± 0.023
[16]; 20000 nM
  level (log10): -0.0165 ± 0.05
[16]; 60000 nM
  level (log10): -0.037 ± 0.051
[17]; 6700 nM
  level (log10): 0.001 ± 0.021
[17]; 20000 nM
  level (log10): -0.0035 ± 0.005
[17]; 60000 nM
  level (log10): 0.027 ± 0.027
[18]; 6700 nM
  level (log10): -0.032 ± 0.058
[18]; 20000 nM
  level (log10): -0.017 ± 0.03
[18]; 60000 nM
  level (log10): -0.0505 ± 0.035
[19]; 6700 nM
  level (log10): -0.0175 ± 0.021
[19]; 20000 nM
  level (log10): -0.046 ± 0.05
[19]; 60000 nM
  level (log10): -0.026 ± 0.064

## HDF3CGF:CD106/VCAM-1
[1]
  level (log10): -0.512 ± 0.033
[2]; 6700 nM
  level (log10): -0.0265 ± 0.015
[2]; 20000 nM
  level (log10): -0.019 ± 0.02
[2]; 60000 nM
  level (log10): -0.025 ± 0.035
[3]; 6700 nM
  level (log10): -0.085 ± 0.051
[3]; 20000 nM
  level (log10): -0.234 ± 0.0064
[4]; 6700 nM
  level (log10): -0.051 ± 0.04
[4]; 20000 nM
  level (log10): -0.0065 ± 0.0064
[4]; 60000 nM
  level (log10): -0.042 ± 0.0085
[5]; 6700 nM
  level (log10): 0.0715 ± 0.03
[5]; 20000 nM
  level (log10): 0.0695 ± 0.057
[5]; 60000 nM
  level (log10): 0.0585 ± 0.076
[6]; 6700 nM
  level (log10): -0.0285 ± 0.019
[6]; 20000 nM
  level (log10): -0.014 ± 0.024
[6]; 60000 nM
  level (log10): -0.04 ± 0.078
[7]; 6700 nM
  level (log10): -0.133 ± 0.0057
[7]; 20000 nM
  level (log10): -0.313 ± 0.0099
[8]; 1500 nM
  level (log10): -0.104 ± 0.06
[8]; 4400 nM
  level (log10): -0.164 ± 0.042
[8]; 13000 nM
  level (log10): -0.0895 ± 0.049
[8]; 40000 nM
  level (log10): -0.0215 ± 0.0092
[9]; 6700 nM
  level (log10): -0.0165 ± 0.021
[9]; 20000 nM
  level (log10): -0.046 ± 0.041
[10]; 6700 nM
  level (log10): -0.0005 ± 0.018
[10]; 20000 nM
  level (log10): -0.0085 ± 0.0064
[10]; 60000 nM
  level (log10): -0.0395 ± 0.03
[11]; 6700 nM
  level (log10): -0.0505 ± 0.059
[11]; 20000 nM
  level (log10): -0.034 ± 0.042
[11]; 60000 nM
  level (log10): -0.205 ± 0.0092
[12]; 6700 nM
  level (log10): 0.034 ± 0.11
[12]; 20000 nM
  level (log10): 0.034 ± 0.093
[12]; 60000 nM
  level (log10): 0.0135 ± 0.064
[13]; 6700 nM
  level (log10): 0.017 ± 0.017
[13]; 20000 nM
  level (log10): 0.0115 ± 0.013
[13]; 60000 nM
  level (log10): 0.009 ± 0.0085
[14]; 6700 nM
  level (log10): -0.011 ± 0.02
[14]; 20000 nM
  level (log10): -0.071 ± 0.05
[14]; 60000 nM
  level (log10): -0.083 ± 0.048
[15]; 6700 nM
  level (log10): 0.042 ± 0.083
[15]; 20000 nM
  level (log10): 0.0495 ± 0.08
[15]; 60000 nM
  level (log10): 0.041 ± 0.055
[16]; 6700 nM
  level (log10): -0.0005 ± 0.012
[16]; 20000 nM
  level (log10): -0.0165 ± 0.035
[16]; 60000 nM
  level (log10): 0.01 ± 0.0099
[17]; 6700 nM
  level (log10): -0.001 ± 0.025
[17]; 20000 nM
  level (log10): -0.01 ± 0.0057
[17]; 60000 nM
  level (log10): -0.057 ± 0.016
[18]; 6700 nM
  level (log10): 0.008 ± 0.028
[18]; 20000 nM
  level (log10): 0.0185 ± 0.03
[18]; 60000 nM
  level (log10): -0.0085 ± 0.037
[19]; 6700 nM
  level (log10): 0.013 ± 0.0099
[19]; 20000 nM
  level (log10): -0.017 ± 0.0014
[19]; 60000 nM
  level (log10): -0.04 ± 0.021

Reference: the supplement of paper PMC10331698
